Assay results from PubChem BioAssay (NCI).
Values joined by “and” are separate entries in the source; they are usually repeats but may differ in a detail not shown here. Equal entries are not always repeated.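 Values below derive from 48-hour exposures of cells grown in 96-well plates, with endpoints linearly interpolated between the two concentrations bracketing the appropriate inhibition level. GI50 marks 50% less growth. TGI: total growth inhibition.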

Legend:
Assay in all cases: NCI-60 cell line screen, 48 h
[1] = test system: SF-268 CNS
[2] = test system: A498 renal
[3] = test system: OVCAR-4 ovarian
[4] = test system: RPMI-8226 leukemia
[5] = test system: NCI-H226 lung
[6] = test system: SF-539 CNS
[7] = test system: COLO 205 colon
[8] = test system: CAKI-1 renal
[9] = test system: NCI-H460 lung
[10] = test system: LOX IMVI melanoma

SMILES | GI50 [1] | TGI [1] | GI50 [2] | TGI [2] | GI50 [3] | TGI [3] | GI50 [4] | TGI [4] | GI50 [5] | TGI [5] | GI50 [6] | TGI [6] | GI50 [7] | TGI [7] | GI50 [8] | TGI [8] | GI50 [9] | TGI [9] | GI50 [10] | TGI [10]
CCCCOC(=O)/C=C\C(=O)NC(N)=O | 22.1 µM | 61 µM | 29.3 µM | 78.1 µM | 17.1 µM | 43.8 µM | 7.88 µM | 28.9 µM | 20 µM | 49.2 µM | 24.6 µM | 70 µM | 14 µM | 29.1 µM | 2.53 µM | 9.23 µM | 31.9 µM | > 100 µM | 17.4 µM | 32.4 µM
COc1ccc(N=N/C(=N\NC(=O)c2cc(Br)ccc2O)c2ccc(N(CCC#N)CCC#N)cc2OC)cc1 | 30.1 µg/mL | > 150 µg/mL | > 150 µg/mL | > 150 µg/mL | 28.5 µg/mL | 76 µg/mL | 74.4 µg/mL | > 150 µg/mL | 24.2 µg/mL | 88.1 µg/mL | 80.8 µg/mL | > 150 µg/mL | 50.6 µg/mL | > 150 µg/mL | 53.3 µg/mL | > 150 µg/mL | 33.5 µg/mL | 109 µg/mL | 53.2 µg/mL | > 150 µg/mL
CCC(CC)c1cc(N[C@H]2CC[C@H](N)C2)n2nccc2n1 | 2.44 µM | 13.9 µM | 2.53 µM | > 100 µM | 0.978 µM | 22.8 µM | 2.61 µM | > 100 µM | 0.969 µM | 48.7 µM | 1 µM | 5.07 µM | 0.732 µM | 2.41 µM | 0.423 µM | > 100 µM | 0.358 µM | > 100 µM | 0.747 µM | > 100 µM
CN1CCN(Cc2ccc(NC(=O)c3cncc(C#Cc4c(N)ncc5c(F)cccc45)c3)cc2C(F)(F)F)CC1 | 0.741 µM | 1.61 µM | 0.763 µM | 1.55 µM | 0.503 µM | 1.25 µM | 0.991 µM | 2.37 µM | 0.689 µM | 3.38 µM | 0.593 µM | 1.22 µM | 0.638 µM | 1.42 µM | 0.86 µM | 1.61 µM | 0.803 µM | 1.57 µM | 0.646 µM | 1.35 µM
COC(=O)CC1C2(C)C3=C(C)C(c4ccoc4)CC3OC2C2OC(=O)C3(C)C=CC(=O)C1(C)C23 (stereo not given) | – | 7.62 µM | – | 4.99 µM | – | 10.1 µM | – | 1.16 µM | – | 7.68 µM | – | 3.03 µM | – | 3.58 µM | – | 2.15 µM | – | 3.26 µM | – | 2.3 µM
N#CCCN(C1=NN(C(=O)CC(=O)Nc2ccc(Cl)cc2)C(c2ccccc2)C1)c1ccc(Cl)cc1 (stereo not given) | – | > 100 µM | – | > 100 µM | – | > 100 µM | – | > 100 µM | – | > 100 µM | – | > 100 µM | – | > 100 µM | – | > 100 µM | – | > 100 µM | – | > 100 µM
Cn1cnc([N+](=O)[O-])c1Sc1nc2ccccc2o1 | – | 14.4 µM | – | 45.2 µM | – | 15 µM | – | 22.5 µM | – | 30.9 µM | – | 24.1 µM | – | 3.4 µM | – | 6.19 µM | – | > 71.6 µM | – | 26.1 µM
Cc1cc(I)cc(CNCCN2CCOCC2)c1O | 93.2 µM | > 100 µM | > 100 µM | > 100 µM | > 100 µM | > 100 µM | > 100 µM | > 100 µM | > 100 µM | > 100 µM | 37.2 µM | > 100 µM | > 100 µM | > 100 µM | > 100 µM | > 100 µM | 52.8 µM | > 100 µM | > 100 µM | > 100 µM
CCCCCCCCCCCCNC(=O)N[C@H](C(=O)N[C@H]1/C=C/CCNC(=O)/C=C/[C@H](C)NC1=O)C(C)C | 0.0543 µM | 1.04 µM | 0.0649 µM | 0.362 µM | 0.104 µM | 2.12 µM | 0.0309 µM | 1 µM | 0.0582 µM | 0.167 µM | 0.0805 µM | 0.263 µM | 0.0309 µM | 0.109 µM | 4.95 µM | > 100 µM | 0.0416 µM | 0.288 µM | 0.113 µM | 0.355 µM
CC12CC/C(=N/NC(N)=O)C3C1CCCC32 | – | > 100 µM | – | > 100 µM | – | > 100 µM | – | > 100 µM | – | > 100 µM | – | > 100 µM | – | > 100 µM | – | > 100 µM | – | > 100 µM | – | > 100 µM
O=C(Nc1ccn(C2CC(I)C(COC(c3ccccc3)(c3ccccc3)c3ccccc3)O2)c(=O)n1)c1ccccc1 (stereo not given) | – | 17.9 µM | – | 13 µM | – | 16.7 µM | – | 17 µM | – | 12.8 µM | – | 18.4 µM | – | 12.8 µM | – | 21.5 µM | – | 14.1 µM | – | 14.7 µM
COC(=O)C(=O)C(C#N)c1cccc(Cl)c1 (stereo not given) | – | > 100 µM | – | > 100 µM | – | > 100 µM | – | > 100 µM | – | > 100 µM | – | > 100 µM | – | > 100 µM | – | > 100 µM | – | > 100 µM | – | > 100 µM
COc1cc(-c2cc(-c3cccs3)c(C#N)c(N3CCOCC3)n2)cc(OC)c1OC | > 67.6 µM | > 100 µM | 2.43 µM | > 43.1 µM | > 44.6 µM | > 100 µM | 4.07 µM | > 85.7 µM | 20.5 µM | > 100 µM | 5.06 µM | > 100 µM | 2.3 µM | 6.62 µM | > 21.6 µM | > 100 µM | 3.06 µM | > 28.5 µM | 12 µM | > 100 µM
CC(C)n1nc(C#Cc2cccc(O)c2)c2c(N)ncnc21 | 1.37 µM and 1.09 µM | 6.71 µM and 6.05 µM | 1.56 µM and 1.71 µM | 6.5 µM and 4.29 µM | 1.34 µM and 1.74 µM | 7.4 µM and 6.17 µM | 1.13 µM and 0.516 µM | 5.78 µM and 6.19 µM | 3.81 µM and 1.37 µM | 21.1 µM and 6.02 µM | 0.815 µM and 0.282 µM | 3.57 µM and 1.65 µM | 1.53 µM and 1.89 µM | 12.7 µM and 13.2 µM | 1.66 µM and 1.59 µM | 6.06 µM and 6.87 µM | 1.34 µM and 1.13 µM | 9.9 µM and 13.1 µM | 0.685 µM and 0.316 µM | 2.64 µM and 1.19 µM
NC(=O)c1cc(I)ccc1NC(=O)/C=C/c1ccccc1Cl | 0.64 µM | 31 µM | 0.483 µM | 8.01 µM | 2.26 µM | 67.7 µM | 0.504 µM | 4.66 µM | 1.61 µM | > 60.6 µM | 0.41 µM | 2.83 µM | 0.651 µM | 5.7 µM | 0.405 µM | 3.78 µM | 0.413 µM | 4.7 µM | 1.82 µM | 98.7 µM
